In US4689345A, “Oxygenated alkyl substituted bicyclo alkanes” (CBD Corporation, priority 1986, dated 1987):
Values joined by “and” are separate entries in the source; they are usually repeats but may differ in a detail not shown here. Equal values may be shown once. Read-outs that look alike come from different tables or passages of the source.

Columns and labels:
androgen receptor [1] = test: Androgen receptor inhibition, Saccharomyces cerevisiae strains; settings: DHT:anti-androgen 1:1,000
estrogen receptor [2] = format: binding, Histoplasma
estrogen receptor [3] = test: Estrogen receptor inhibition, Norcardia; format: binding
progesterone receptor [4] = test: Progesterone receptor inhibition, Fusarium calorum; format: binding
From the text: (§1) In the second series of experiments using the compound of the invention 2-(5-hydroxyhept-1-yl) bicyclo[3.3.0]octan-7-one {hexahydro-4-(5-hydroxyheptyl)-2-(1H)-pentalenone} upon zeralenone and zearalanol production, zearalenone and zearalanol were chemically obtained from Sigma Chemical Co., St. Louis, Mo.

progesterone receptor [5] = test: Progesterone receptor inhibition, Torulopsis; format: binding
fungal infections = test: Efficacy studies and toxicity studies
From the text: At the present time, therapies for fungal infections are not satisfactory and are frequently dangerous.

estrogen receptor [6] = test: Estrogen receptor inhibition, Pseudomonas testosteroni; format: binding
androgen receptor [7] = format: binding; settings: Histoplasma
progesterone receptor [8] = test: Progesterone receptor inhibition, Candida; format: binding
androgen receptor [9] = test: Androgen receptor inhibition, Norcardia; format: binding
androgen receptor [10] = test: Androgen receptor inhibition, Cryptococci; format: binding
progesterone receptor [11] = test: Progesterone receptor inhibition, Coccodia; format: binding
[12] = system: fungal androgen receptors; test: Fungal androgen receptor inhibition, Fusarium; format: binding
From the text: as §1

progesterone receptor [13] = test: Progesterone receptor inhibition, Actinomyces; format: binding
progesterone receptor [14] = test: Progesterone receptor inhibition, Fulsarium gravarium; format: binding
From the text: as §1

estrogen receptor [15] = test: Estrogen receptor inhibition, Trichophyton; format: binding
[16] = molecular target: T1, progesterone receptor (keloid cytosol) (Homo sapiens, UniProt P06401); test: Keloid cytosol steroid binding assay, progesterone
T1 construct: [3H]promegestone (R5020) tracer

estrogen receptor [17] = test: Effect on estrogen receptors in melanoma; format: binding; settings: 1:1000 DHT to compound
hard fibrous band = test: Hard fibrous band formation around breast implants following augmentation surgery; set-up: species or system human
From the text: (§2) "Hard fibrous band" formation was retarded around breast implants following augmentation surgery.

androgen receptor [18] = molecular target: T2, androgen receptor (Homo sapiens, UniProt P10275); test: Androgen receptor blocking in breast capsule (hard band) tissue; format: binding; set-up: from tissue; host or cells: breast capsule (hard fibrous band) tissue; concentration or dose not given beside the values
T2 sequence (P10275 1-920): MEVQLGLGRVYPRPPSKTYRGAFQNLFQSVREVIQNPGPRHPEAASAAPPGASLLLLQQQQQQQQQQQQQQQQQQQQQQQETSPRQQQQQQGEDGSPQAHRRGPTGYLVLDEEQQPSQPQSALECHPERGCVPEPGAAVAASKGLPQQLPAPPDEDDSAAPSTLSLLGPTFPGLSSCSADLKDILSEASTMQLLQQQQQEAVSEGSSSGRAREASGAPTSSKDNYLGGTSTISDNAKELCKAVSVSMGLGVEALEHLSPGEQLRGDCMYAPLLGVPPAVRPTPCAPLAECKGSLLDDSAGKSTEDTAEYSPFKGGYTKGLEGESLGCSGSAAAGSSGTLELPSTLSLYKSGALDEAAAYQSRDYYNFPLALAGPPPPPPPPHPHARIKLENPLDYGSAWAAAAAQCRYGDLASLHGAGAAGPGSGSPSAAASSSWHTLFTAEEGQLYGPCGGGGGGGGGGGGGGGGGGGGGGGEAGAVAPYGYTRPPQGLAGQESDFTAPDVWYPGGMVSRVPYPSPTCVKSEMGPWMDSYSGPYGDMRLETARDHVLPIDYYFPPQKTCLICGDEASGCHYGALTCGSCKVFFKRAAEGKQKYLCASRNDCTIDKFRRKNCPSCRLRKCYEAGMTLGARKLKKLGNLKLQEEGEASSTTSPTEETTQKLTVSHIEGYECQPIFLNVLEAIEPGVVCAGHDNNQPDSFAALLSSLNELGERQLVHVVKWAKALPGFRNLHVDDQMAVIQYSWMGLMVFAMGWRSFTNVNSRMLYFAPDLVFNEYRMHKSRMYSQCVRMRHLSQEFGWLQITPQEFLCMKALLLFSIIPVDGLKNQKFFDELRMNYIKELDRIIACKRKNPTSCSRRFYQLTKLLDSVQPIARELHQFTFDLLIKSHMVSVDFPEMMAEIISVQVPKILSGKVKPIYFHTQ
From the text: In addition to interabdominal adhesions following surgery, the other most common post-surgical fibrous complication is that of a hard fibrous band developing around breast implants following breast augmentation surgery. It has been postulated that these bands may be caused by keloid formation under the skin. Such tissues were studied to evaluate the effect of the anti-androgens of this invention on other keloid tissue.

androgen receptor [19] = molecular target: T2, androgen receptor; test: Androgen receptor inhibition in skin/tissue fibroblast lines; format: cell-based; set-up: The bald skin was used for androgen receptors using the second technique described above; from tissue; host or cells: bald scalp skin of hair transplantation volunteers; settings: DHT:compound 1:1,000
Method: Explants of both normal and keloid skin and tissue fibroblast lines were established.
Hormonal receptor analyses on these tissues were performed by the method of Griffith et al., Journal of Clinical Investigation, Vol. 57, page 1340 (1978).

estrogen receptors = test: Effect on estrogen receptors in breast capsule tissue; format: binding, human; settings: breast capsule / hard band tissue
Method: as §2
The tissues were evaluated, with appropriate controls, for effects by the novel anti-androgen.

T1 sequence (P06401 whole entry): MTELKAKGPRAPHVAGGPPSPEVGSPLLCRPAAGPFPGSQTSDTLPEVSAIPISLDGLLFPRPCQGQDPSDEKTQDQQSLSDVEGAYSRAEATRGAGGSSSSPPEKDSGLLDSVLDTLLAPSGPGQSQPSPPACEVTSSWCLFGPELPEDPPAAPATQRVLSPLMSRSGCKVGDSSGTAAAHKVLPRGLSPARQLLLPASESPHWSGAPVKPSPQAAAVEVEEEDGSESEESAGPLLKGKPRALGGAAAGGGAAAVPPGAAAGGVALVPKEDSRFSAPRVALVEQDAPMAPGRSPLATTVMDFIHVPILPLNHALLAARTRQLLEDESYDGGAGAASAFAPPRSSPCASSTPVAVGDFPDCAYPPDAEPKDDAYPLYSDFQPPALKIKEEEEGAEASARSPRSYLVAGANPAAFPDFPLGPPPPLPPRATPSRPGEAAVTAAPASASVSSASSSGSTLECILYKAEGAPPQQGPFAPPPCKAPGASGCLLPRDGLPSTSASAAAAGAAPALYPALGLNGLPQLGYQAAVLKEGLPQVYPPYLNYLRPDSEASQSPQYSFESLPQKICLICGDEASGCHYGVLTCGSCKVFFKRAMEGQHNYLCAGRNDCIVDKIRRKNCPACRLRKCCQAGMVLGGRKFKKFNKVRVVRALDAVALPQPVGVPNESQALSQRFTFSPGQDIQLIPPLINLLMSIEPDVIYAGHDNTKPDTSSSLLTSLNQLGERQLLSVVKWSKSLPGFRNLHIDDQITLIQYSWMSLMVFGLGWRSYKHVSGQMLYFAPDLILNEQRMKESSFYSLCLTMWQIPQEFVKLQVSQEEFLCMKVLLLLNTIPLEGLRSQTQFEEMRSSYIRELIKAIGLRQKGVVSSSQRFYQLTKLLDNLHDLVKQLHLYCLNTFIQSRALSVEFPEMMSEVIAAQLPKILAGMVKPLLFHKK

SMILES: CCC(O)CCCCC1CCC2CC(=O)CC12 (centres unmarked) [Compound IV]
- % Androgen Receptor Inhibition (androgen receptor [1]; strain 1): 16%
- % Androgen Receptor Inhibition (androgen receptor [1]; strain 2): 37%
- % Androgen Receptor Inhibition (androgen receptor [1]; strain 3): 92%
- % Androgen Receptor Inhibition (androgen receptor [1]; strain 4): 76%
- % Androgen Receptor Inhibition (androgen receptor [1]; strain 5): 39%
- % Androgen Receptor Inhibition (androgen receptor [1]; strain 6): 59%
- % Androgen Receptor Inhibition (androgen receptor [1]; strain 7): 87%
- % Estrogen Receptor Inhibition (estrogen receptor [2]): 0%
- % Estrogen Receptor Inhibition (estrogen receptor [3]): 0%
- % Progesterone Receptor Inhibition (progesterone receptor [4]; DHT:anti-androgen 1:1): 7%
- % Progesterone Receptor Inhibition (progesterone receptor [4]; DHT:anti-androgen 1:10): 9%
- % Progesterone Receptor Inhibition (progesterone receptor [5]): 6%
- efficacy studies (fungal infections): efficacious
- toxicity studies (fungal infections): safe
- % Estrogen Receptor Inhibition (estrogen receptor [6]; strain 1): 0%
- % Estrogen Receptor Inhibition (estrogen receptor [6]; strain 2): 0%
- % Estrogen Receptor Inhibition (estrogen receptor [6]; strain 3): 0%
- % Estrogen Receptor Inhibition (estrogen receptor [6]; strain 4): 0%
- % Androgen Receptor Inhibition (androgen receptor [7]): 47%
- % Progesterone Receptor Inhibition (progesterone receptor [8]): 7%
- % Androgen Receptor Inhibition (androgen receptor [9]): 50%
- % Androgen Receptor Inhibition (androgen receptor [10]): 76%
- % Progesterone Receptor Inhibition (progesterone receptor [11]): 4%
- fungal androgen receptors blocked ([12]; DHT:compound 1:1,000): 9-83%
- % Androgen Receptor Inhibition ([12]; fungal hormone Zeralanol): 84%
- % Androgen Receptor Inhibition ([12]; fungal hormone Zeralenone): 79%
- blocking of interaction of fungal hormone and its hormonal receptors ([12]; hormone:anti-androgen 1:1 to 1:1,000): 26-90%
- % Progesterone Receptor Inhibition (progesterone receptor [13]): 0%
- % Progesterone Receptor Inhibition (progesterone receptor [14]; DHT:anti-androgen 1:1): 1%
- % Progesterone Receptor Inhibition (progesterone receptor [14]; DHT:anti-androgen 1:10): 3%
- % Progesterone Receptor Inhibition (progesterone receptor [14]; DHT:anti-androgen 1:100): 6%
- % Progesterone Receptor Inhibition (progesterone receptor [14]; DHT:anti-androgen 1:1,000): 4%
- % Estrogen Receptor Inhibition (estrogen receptor [15]): 0%

SMILES: CCC(CCCCC1CCC2CC(=O)CC12)OC (centres unmarked) [Compound V, 2-(5-Methoxyhept-1-yl)bicyclo[3.3.0]octan-7-one]
- effect on binding of progesterone [16]: no effect
- effect on estrogen receptors in melanoma tissue (estrogen receptor [17]): no significant effect
- hard fibrous band formation around breast implants (hard fibrous band): retarded
- Mean % Androgen Inhibition (androgen receptor [18]; breast capsule group 1): 17%
- Mean % Androgen Inhibition (androgen receptor [18]; breast capsule group 2): 49%
- Mean % Androgen Inhibition (androgen receptor [18]; breast capsule group 3): 70%
- Mean % Androgen Inhibition (androgen receptor [18]; breast capsule group 4): 74%
- % Androgen Receptor Inhibition (androgen receptor [19]; forearm): 22%
- % Androgen Receptor Inhibition (androgen receptor [19]; keloid): 72% and 41%
- effect on estrogen receptors (estrogen receptors): without any significant effects
- effect on estrogen receptors (estrogen receptors; listed as 2-(5-methoxyhept-1-yl)bicyclo[3.3.0]octan-7-one): no significant effects
